Values of other authors in patent US12496272B1, “Stable epinephrine suspension formulation for inhalation with HFO propellant” (Amphastar Pharmaceuticals, Inc., priority 2024, dated 2025).

Row | Water solubility (at 25° C.) [at 25 °C ppm] | Log P (octanol/water) | SMILES
1 | 2220 | 1.1 | FCC(F)(F)F [HFA-134a, 1,1,1,2-tetrafluoroethane]
2 |  | 2.1 | FC(C(F)(F)F)C(F)(F)F [HFA-227, 1,1,1,2,3,3,3-heptafluoropropane]

Row | SMILES | Water solubility (at 25° C.) [at 25 °C ppm] | Log P (octanol/water)
3 | F/C=C/C(F)(F)F [HFO-1234ze(E), trans-1,3,3,3-tetrafluoropropene] |  | 1.3
